In ChEMBL document CHEMBL1201862, “PubChem BioAssay data set” (2004):
Where a name gives a salt, the structure may show the parent alone.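 Cells were grown in 96-well plates and exposed to each compound for 48 hours at five concentrations; endpoints were interpolated linearly between bracketing concentrations, or set to the highest concentration if not reached. Abbreviation: GI50, concentration required for 50% inhibition of growth.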 Activity calls are given as the source filed them. No stated cut-off is given here; in the data, active = GI50 up to about 1.1 µM and inactive = higher.

Columns and labels:
Assay in all cases: NCI anticancer screen, dose series, 48 h
[1] = test system: A498
[2] = test system: HCT-116
[3] = test system: HCT-15
[4] = test system: HOP-62
[5] = test system: HOP-92
[6] = test system: IGROV-1
[7] = test system: MDA-MB-435
[8] = test system: MOLT-4
[9] = test system: Malme-3M
[10] = test system: NCI/ADR-RES
[11] = test system: OVCAR-5
[12] = test system: RXF 393
[13] = test system: SF-268
[14] = test system: SF-539
[15] = test system: SNB-75
[16] = test system: SW-620
[17] = test system: UO-31
[18] = test system: OVCAR-3
[19] = test system: RPMI-8226

Row | SMILES | GI50 [1] | GI50 [2] | GI50 [3] [µM] | GI50 [4] | GI50 [5] | GI50 [6] | GI50 [7] | GI50 [8] | GI50 [9] | GI50 [10] | GI50 [11] | GI50 [12] | GI50 [13] | GI50 [14] | GI50 [15] | GI50 [16] | GI50 [17] | GI50 [18] | GI50 [19]
1 | O=[N+]([O-])c1cccc(-c2cn3c(n2)Cc2ccccc2C3)c1 | 16.9 µM (inactive) | 23.9 µM (inactive) | > 100 | 29.1 µM (inactive) | > 100 µM (inactive) | > 100 µM (inactive) | 83.4 µM (inactive) | 9.68 µM (inactive) | > 100 µM (inactive) | > 100 µM (inactive) | 17.8 µM (inactive) | > 100 µM (inactive) | > 100 µM (inactive) | 57.4 µM (inactive) | > 100 µM (inactive) | > 100 µM (inactive) | 51.2 µM (inactive) | – | –
2 | Cc1cc(C)c(N[S+]([O-])c2cccc(C(F)(F)F)c2)c(C)c1 (stereo not given) | > 100 µM (inactive) | – | > 100 | > 100 µM (inactive) | > 100 µM (inactive) | – | > 100 µM (inactive) | > 100 µM (inactive) | > 100 µM (inactive) | > 100 µM (inactive) | > 100 µM (inactive) | > 100 µM (inactive) | > 100 µM (inactive) | > 100 µM (inactive) | – | > 100 µM (inactive) | > 100 µM (inactive) | > 100 µM (inactive) | > 100 µM (inactive)
3 | COc1ccc(/C=C(\C#N)c2nc(N)nc(N3N=C(C)CC3(C)C)n2)c(O)c1 | 28.4 µM (inactive) | 17.6 µM (inactive) | 17.7 | 24.1 µM (inactive) | 31.5 µM (inactive) | 24 µM (inactive) | 16.9 µM (inactive) | 13.1 µM (inactive) | 14.4 µM (inactive) | 31 µM (inactive) | 15.3 µM (inactive) | 16.1 µM (inactive) | 17.2 µM (inactive) | 15.7 µM (inactive) | – | – | 17.3 µM (inactive) | 15 µM (inactive) | 41.3 µM (inactive)
4 | N#CCCSC1SC(=C2SC3=C(SCCS3)S2)SC1SCCC#N (stereo not given) | > 100 µM (inactive) | > 100 µM (inactive) | > 100 | > 100 µM (inactive) | > 100 µM (inactive) | > 100 µM (inactive) | > 100 µM (inactive) | > 100 µM (inactive) | – | > 100 µM (inactive) | > 100 µM (inactive) | > 100 µM (inactive) | > 100 µM (inactive) | > 100 µM (inactive) | – | > 100 µM (inactive) | > 100 µM (inactive) | > 100 µM (inactive) | –
5 | O=C1CCCCC(=O)Nc2ccccc2N1 | > 100 µM (inactive) | > 100 µM (inactive) | > 100 | > 100 µM (inactive) | > 100 µM (inactive) | > 100 µM (inactive) | > 100 µM (inactive) | > 100 µM (inactive) | > 100 µM (inactive) | > 100 µM (inactive) | > 100 µM (inactive) | > 100 µM (inactive) | > 100 µM (inactive) | > 100 µM (inactive) | – | > 100 µM (inactive) | > 100 µM (inactive) | > 100 µM (inactive) | > 100 µM (inactive)
6 | N=c1c2c3n(c4c(=O)n(-c5ccccc5)c(=S)n(c(=O)n1-c1ccccc1)c24)CCCCC3 | > 96.2 µM (inactive) | > 100 µM (inactive) | > 100 | 99.3 µM (inactive) | > 100 µM (inactive) | > 100 µM (inactive) | > 100 µM (inactive) | – | > 100 µM (inactive) | > 100 µM (inactive) | > 100 µM (inactive) | > 75.7 µM (inactive) | > 100 µM (inactive) | > 89.7 µM (inactive) | > 63.1 µM (inactive) | > 100 µM (inactive) | > 100 µM (inactive) | > 100 µM (inactive) | –
7 | COc1cc2c(cc1OC)C(Cc1ccccc1CCCl)=NCC2 | > 100 µM (inactive) | 21.1 µM (inactive) | 25.1 | > 100 µM (inactive) | 30.3 µM (inactive) | 27 µM (inactive) | 40.1 µM (inactive) | 38.6 µM (inactive) | – | 25.8 µM (inactive) | > 100 µM (inactive) | 43.7 µM (inactive) | 53 µM (inactive) | 21.2 µM (inactive) | 30.3 µM (inactive) | 42 µM (inactive) | 31.3 µM (inactive) | > 100 µM (inactive) | 24.2 µM (inactive)
8 | CCOC(=O)/C(=C\c1cn(C(C)=O)c2ccccc12)P(C)(=O)OCC (stereo not given) | 28.8 µM (inactive) | 26.2 µM (inactive) | 28.8 | 33.2 µM (inactive) | 17.2 µM (inactive) | 16.8 µM (inactive) | 31.8 µM (inactive) | > 100 µM (inactive) | 17.3 µM (inactive) | 20.4 µM (inactive) | 68.7 µM (inactive) | – | 21.1 µM (inactive) | 19.8 µM (inactive) | 11 µM (inactive) | 39.2 µM (inactive) | 32.3 µM (inactive) | 28.5 µM (inactive) | > 100 µM (inactive)
9 | CCSc1nc(C)nc2c1sc1nc3ccccc3n12 | > 100 µM (inactive) | > 100 µM (inactive) | > 100 | – | > 100 µM (inactive) | > 100 µM (inactive) | > 100 µM (inactive) | > 100 µM (inactive) | – | > 100 µM (inactive) | > 100 µM (inactive) | > 100 µM (inactive) | > 100 µM (inactive) | > 100 µM (inactive) | > 94 µM (inactive) | > 100 µM (inactive) | > 100 µM (inactive) | > 100 µM (inactive) | > 100 µM (inactive)
10 | O=c1n(CCCN2CCN(c3cccc(Cl)c3)CC2)nc2n1-c1ccc3ccccc3c1SC2 | > 100 µM (inactive) | 9.46 µM (inactive) | > 100 | > 100 µM (inactive) | > 100 µM (inactive) | > 100 µM (inactive) | > 100 µM (inactive) | 7.93 µM (inactive) | – | > 100 µM (inactive) | > 100 µM (inactive) | > 100 µM (inactive) | – | > 100 µM (inactive) | > 100 µM (inactive) | > 100 µM (inactive) | – | > 100 µM (inactive) | 58.9 µM (inactive)
11 | Cc1ccc(Cc2n[nH]c(=O)[nH]2)cc1 | > 100 µM (inactive) | > 100 µM (inactive) | > 100 | > 100 µM (inactive) | > 100 µM (inactive) | > 100 µM (inactive) | > 100 µM (inactive) | > 100 µM (inactive) | > 100 µM (inactive) | > 100 µM (inactive) | > 100 µM (inactive) | – | – | > 100 µM (inactive) | > 100 µM (inactive) | > 100 µM (inactive) | > 100 µM (inactive) | > 100 µM (inactive) | –
12 | Cc1oc2nc(N(C)C)nc(Cl)c2c1C | 29.9 µM (inactive) | > 100 µM (inactive) | > 100 | > 100 µM (inactive) | 25.2 µM (inactive) | 49.8 µM (inactive) | > 100 µM (inactive) | > 100 µM (inactive) | – | > 100 µM (inactive) | > 100 µM (inactive) | 40.6 µM (inactive) | > 100 µM (inactive) | > 100 µM (inactive) | 3.89 µM (inactive) | > 100 µM (inactive) | 26.8 µM (inactive) | > 100 µM (inactive) | > 100 µM (inactive)
13 | CCN(CC)C(=O)c1cc([N+](=O)[O-])c(=O)n2c1[nH]c1ccccc12 | – | > 100 µM (inactive) | – | > 100 µM (inactive) | > 100 µM (inactive) | > 100 µM (inactive) | > 100 µM (inactive) | > 100 µM (inactive) | > 100 µM (inactive) | > 100 µM (inactive) | > 100 µM (inactive) | > 100 µM (inactive) | > 100 µM (inactive) | > 100 µM (inactive) | > 100 µM (inactive) | > 100 µM (inactive) | > 100 µM (inactive) | > 100 µM (inactive) | > 100 µM (inactive)
14 | CC(C)(C)OC(=O)N(CCCCNCc1ccc2ccccc2c1)CCCNCc1ccc2ccccc2c1 | 1.91 µM (inactive) | 1.15 µM (inactive) | 1.57 | 1.86 µM (inactive) | 1.64 µM (inactive) | 1.64 µM (inactive) | 1.84 µM (inactive) | 0.708 µM (active) | – | 1.57 µM (inactive) | 1.67 µM (inactive) | 1.69 µM (inactive) | 1.77 µM (inactive) | 1.44 µM (inactive) | 1.52 µM (inactive) | 1.75 µM (inactive) | 1.73 µM (inactive) | 1.93 µM (inactive) | 1.08 µM (active)
15 | CN(C)CCOC(=O)COc1ccc(Cl)cc1 [CENTROPHENOXINE HYDROCHLORIDE] | 98.6 µM (inactive) | > 100 µM (inactive) | > 100 | > 100 µM (inactive) | > 100 µM (inactive) | > 100 µM (inactive) | > 100 µM (inactive) | > 100 µM (inactive) | > 100 µM (inactive) | > 100 µM (inactive) | > 100 µM (inactive) | > 100 µM (inactive) | > 100 µM (inactive) | > 100 µM (inactive) | 52.8 µM (inactive) | > 100 µM (inactive) | > 100 µM (inactive) | > 100 µM (inactive) | –
16 | CC[C@](C)(O)C(=O)O[C@H]1C(=O)O[C@@H]2C[C@H]3C(C)=CC(=O)[C@@H](O)[C@]3(C)[C@H]3[C@@]4(O)OC[C@]32[C@@H]1[C@@H](C)[C@H]4O [GLAUCARUBINONE] | 0.32 µM (active) | 0.05 µM (active) | 0.0885 | 0.0794 µM (active) | 0.049 µM (active) | 0.05 µM (active) | 1.4 µM (inactive) | 0.05 µM (active) | – | 2.27 µM (inactive) | 0.658 µM (active) | 0.05 µM (active) | 0.0661 µM (active) | 0.05 µM (active) | 0.0585 µM (active) | 0.075 µM (active) | 0.378 µM (active) | 0.0982 µM (active) | 0.0548 µM (active)
